The results in this text go back to ChEMBL document CHEMBL2074304, “Primary active transport of peptidic endothelin antagonists by rat hepatic canalicular membrane” (J Pharmacol Exp Ther, 1999).

Assay type in all cases: functional, cell membranes, Sprague-Dawley, Bile canalicular membrane vesicle
For data set [1], the target named is T1, ATP-binding cassette sub-family C member 2 (Rattus norvegicus, UniProt Q63120). As to the kind of experiment: TP_TRANSPORTER: inhibition of BQ-123 uptake in bile canalicular membrane vesicles from SD rat.
Data set [2] has as its target T1, ATP-binding cassette sub-family C member 2. As to the kind of experiment: TP_TRANSPORTER: inhibition of BQ-485 uptake in bile canalicular membrane vesicles from SD rat.
Substrate in data set [3]: CC(C)C[C@@H]1NC(=O)[C@@H](C(C)C)NC(=O)[C@@H]2CCCN2C(=O)[C@@H](CC(=O)O)NC(=O)[C@@H](Cc2c[nH]c3ccccc23)NC1=O
Nature of the data set: (§1) TP_TRANSPORTER: uptake in bile canalicular membrane vesicles from SD rat.

Substrate in data set [4]: CC(C)C[C@H](NC(=O)N1CCCCCC1)C(=O)N[C@H](Cc1c[nH]c2ccccc12)C(=O)N[C@H](Cc1c[nH]c2ccccc12)C(=O)O
The data set is described as §1.

Substrate in data set [5]: [H][C@@]12CCCN1C(=O)[C@@H](CC(=O)O)NC(=O)[C@@H](Cc1c[nH]c3ccccc13)NC(=O)[C@H](CC(C)C)NC(=O)[C@@H](c1cccs1)NC2=O
Described as §1.

Square brackets hold non-standard residues; d marks the D form. Peptide text beside a SMILES is read from it. * marks the point of attachment. dGly(2-thienyl) = N[C@@H](C(=O)O)c1cccs1; Moc = COC(=O)*

On to `CC(C)C[C@@H]1NC(=O)[C@@H](C(C)C)NC(=O)[C@@H]2C[C@@H](OC(=O)[C@H](CCCCN)N(C)C)CN2C(=O)[C@@H](CC(=O)O)NC(=O)[C@@H](Cc2c[nH]c3ccccc23)NC1=O`, for which, in data set [1], the affinity corresponds to a Ki of 85.4 µM. The molecule `CC(C)C[C@H](NC(=O)N1CCCCCC1)C(=O)N[C@H](Cc1c[nH]c2ccccc12)C(=O)NC(C)CC(=O)O` (stereo not given in full) displayed an inhibition constant (Ki) in data set [1] of 40 µM. Same read-out and setting: the same measure for `CC(C)C[C@H](NC(=O)N1CCCCCC1)C(=O)N[C@H](Cc1c[nH]c2ccccc12)C(=O)N[C@H](Cc1c[nH]c2ccccc12)C(=O)O`: 8.32 µM. The same measure, in the same setting: next, `COC(=O)n1cc(C[C@H]2NC(=O)[C@H](CC(C)C)NC(=O)[C@@H](C(C)C)NC(=O)[C@@H]3CCCN3C(=O)[C@@H](CC(=O)O)NC2=O)c2ccccc21` (cyclo(L[dW](Moc)[dD]P[dV])): 54.1 µM; `CC(C)C[C@@H]1NC(=O)[C@@H](c2cccs2)NC(=O)[C@@H]2CCCN2C(=O)[C@@H](CC(=O)O)NC(=O)[C@@H](Cc2c[nH]c3ccccc23)NC1=O` (cyclo(L[dW][dD]P[dGly(2-thienyl)])): 65.5 µM.

In the case of `CC(C)C[C@@H]1NC(=O)[C@@H](C(C)C)NC(=O)[C@@H]2CCCN2C(=O)[C@@H](CC(=O)O)NC(=O)[C@@H](Cc2c[nH]c3ccccc23)NC1=O` [BQ-123] (cyclo(L[dW][dD]P[dV])), the affinity in data set [2] corresponds to a Ki of 84.1 µM. In the case of `CC(C)C[C@@H]1NC(=O)[C@@H](C(C)C)NC(=O)[C@@H]2C[C@H](OC(=O)[C@@H](N)CCCNC(=N)N)CN2C(=O)[C@@H](CC(=O)O)NC(=O)[C@@H](Cc2c[nH]c3ccccc23)NC1=O`, the Ki in data set [1] worked out at 1.01 µM.

B1: ATP-binding cassette sub-family C member 2 (Rattus norvegicus) (protein)
chain: MDKFCNSTFWDLSLLESPEADLPLCFEQTVLVWIPLGFLWLLAPWQLYSVYRSRTKRSSITKFYLAKQVFVVFLLILAAIDLSLALTEDTGQATVPPVRYTNPILYLCTWLLVLAVQHSRQWCVRKNSWFLSLFWILSVLCGVFQFQTLIRALLKDSKSNMAYSYLFFVSYGFQIVLLILTAFSGPSDSTQTPSVTASFLSSITFSWYDRTVLKGYKHPLTLEDVWDIDEGFKTRSVTSKFEAAMTKDLQKARQAFQRRLQKSQRKPEATLHGLNKKQSQSQDVLVLEEAKKKSEKTTKDYPKSWLIKSLFKTFHVVILKSFILKLIHDLLVFLNPQLLKLLIGFVKSSNSYVWFGYICAILMFAVTLIQSFCLQSYFQHCFVLGMCVRTTVMSSIYKKALTLSNLARKQYTIGETVNLMSVDSQKLMDATNYMQLVWSSVIQITLSIFFLWRELGPSILAGVGVMVLLIPVNGVLATKIRNIQVQNMKNKDKRLKIMNEILSGIKILKYFAWEPSFQEQVQGIRKKELKNLLRFGQLQSLLIFILQITPILVSVVTFSVYVLVDSANVLNAEKAFTSITLFNILRFPLSMLPMVTSSILQASVSVDRLERYLGGDDLDTSAIRRVSNFDKAVKFSEASFTWDPDLEATIQDVNLDIKPGQLVAVVGTVGSGKSSLVSAMLGEMENVHGHITIQGSTAYVPQQSWIQNGTIKDNILFGSEYNEKKYQQVLKACALLPDLEILPGGDMAEIGEKGINLSGGQKQRVSLARAAYQDADIYILDDPLSAVDAHVGKHIFNKVVGPNGLLAGKTRIFVTHGIHFLPQVDEIVVLGKGTILEKGSYRDLLDKKGVFARNWKTFMKHSGPEGEATVNNDSEAEDDDDGLIPTMEEIPEDAASLAMRRENSLRRTLSRSSRSSSRRGKSLKNSLKIKNVNVLKEKEKEVEGQKLIKKEFVETGKVKFSIYLKYLQAVGWWSILFIILFYGLNNVAFIGSNLWLSAWTSDSDNLNGTNNSSSHRDMRIGVFGALGLAQGICLLISTLWSIYACRNASKALHGQLLTNILRAPMRFFDTTPTGRIVNRFSGDISTVDDLLPQTLRSWMMCFFGIAGTLVMICMATPVFAIIIIPLSILYISVQVFYVATSRQLRRLDSVTKSPIYSHFSETVTGLPIIRAFEHQQRFLAWNEKQIDINQKCVFSWITSNRWLAIRLELVGNLVVFCSALLLVIYRKTLTGDVVGFVLSNALNITQTLNWLVRMTSEAETNIVAVERISEYINVENEAPWVTDKRPPADWPRHGEIQFNNYQVRYRPELDLVLKGITCNIKSGEKVGVVGRTGAGKSSLTNCLFRILESAGGQIIIDGIDVASIGLHDLRERLTIIPQDPILFSGSLRMNLDPFNKYSDEEVWRALELAHLRSFVSGLQLGLLSEVTEGGDNLSIGQRQLLCLGRAVLRKSKILVLDEATAAVDLETDSLIQTTIRKEFSQCTVITIAHRLHTIMDSDKIMVLDNGKIVEYGSPEELLSNRGSFYLMAKEAGIENVNHTEL
On to B1, for which the Km in data set [3] came out at 97.8 µM; in data set [4], 6.46 µM; in data set [5] it was 15.1 µM.
